# Data: ChEMBL document CHEMBL1201862, “PubChem BioAssay data set” (2004)
#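 Five compound concentrations were applied to cells in 96-well plates for 48 hours; endpoints were derived by simple linear interpolation of the resulting dose-response curve. GI50 is the concentration that inhibits growth by half.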 The source made the active and inactive calls. Cut-off read from the data, not from the text of the source: active = GI50 up to about 1.1 µM and inactive = higher.
# Assays:
# Assay in all cases: NCI-60 cell line screen, 48 h
# [1] = system: EKVX
# [2] = system: HCT-116
# [3] = system: NCI/ADR-RES
# [4] = system: T47D
# [5] = system: ACHN
# [6] = system: PC-3
# [7] = system: IGROV-1
# [8] = system: RXF 393
# [9] = system: SNB-75
# [10] = system: SK-MEL-28
# [11] = system: OVCAR-5
# [12] = system: CCRF-CEM
# [13] = system: BT-549
# [14] = system: A549
# [15] = system: HL-60
# [16] = system: Malme-3M
# [17] = system: SF-295
# [18] = system: SW-620
# [19] = system: COLO 205
# [20] = system: HCC 2998
Structure (SMILES),GI50 [1],GI50 [2],GI50 [3],GI50 [4],GI50 [5],GI50 [6],GI50 [7],GI50 [8],GI50 [9],GI50 [10],GI50 [11],GI50 [12],GI50 [13],GI50 [14],GI50 [15],GI50 [16],GI50 [17],GI50 [18],GI50 [19],GI50 [20]
NC(=S)N/N=C\c1ccc(OCc2cccc(COc3ccc(/C=N/NC(N)=S)cc3)n2)cc1,> 100 µM (inactive),12 µM (inactive),> 100 µM (inactive),0.164 µM (active),9.53 µM (inactive),21.6 µM (inactive),14.8 µM (inactive),1.63 µM (inactive),> 100 µM (inactive),22.9 µM (inactive),17.3 µM (inactive),45.7 µM (inactive),2.39 µM (inactive),> 100 µM (inactive),10.5 µM (inactive),86.5 µM (inactive),> 100 µM (inactive),> 100 µM (inactive),5.73 µM (inactive),
CCOC(=O)c1cn2c(n1)sc1cc(Cl)ccc12,18.7 µM (inactive),3.37 µM (inactive),19.6 µM (inactive),57.8 µM (inactive),14.5 µM (inactive),30.6 µM (inactive),24.7 µM (inactive),45 µM (inactive),31 µM (inactive),76.2 µM (inactive),15 µM (inactive),5.45 µM (inactive),> 100 µM (inactive),15.6 µM (inactive),,13.1 µM (inactive),35.2 µM (inactive),4.75 µM (inactive),5.47 µM (inactive),> 100 µM (inactive)
Cc1nc2sc3cccc(Cl)c3n2c(=O)c1/N=N/c1ccc(Cl)cc1,38.5 µM (inactive),88.1 µM (inactive),> 100 µM (inactive),45.3 µM (inactive),59.7 µM (inactive),51.2 µM (inactive),63.8 µM (inactive),> 100 µM (inactive),85.3 µM (inactive),> 100 µM (inactive),> 100 µM (inactive),> 100 µM (inactive),93.8 µM (inactive),77.8 µM (inactive),> 100 µM (inactive),70.6 µM (inactive),53.1 µM (inactive),66.5 µM (inactive),94.6 µM (inactive),
CCCNC(=O)c1cc(NC(=O)c2cc(NC(=O)CCS(=O)(=O)OC)cn2C)cn1C,51.1 µM (inactive),12.8 µM (inactive),> 100 µM (inactive),5.11 µM (inactive),52.4 µM (inactive),10.2 µM (inactive),15 µM (inactive),14.4 µM (inactive),20.6 µM (inactive),33.3 µM (inactive),40.9 µM (inactive),0.902 µM (active),3.68 µM (inactive),> 91 µM (inactive),,8.41 µM (inactive),> 69.8 µM (inactive),6.27 µM (inactive),6.64 µM (inactive),43.5 µM (inactive)
O=c1oc2ccccc2cc1-c1cn2ccccc2n1,11.4 µM (inactive),10.1 µM (inactive),3.15 µM (inactive),14.6 µM (inactive),3.49 µM (inactive),4.26 µM (inactive),7.05 µM (inactive),3.85 µM (inactive),2.47 µM (inactive),4.4 µM (inactive),21.7 µM (inactive),5.18 µM (inactive),11.9 µM (inactive),5.48 µM (inactive),,3.22 µM (inactive),3.66 µM (inactive),10.4 µM (inactive),30.1 µM (inactive),20.1 µM (inactive)
CC1CN(c2cc3c(cc2F)c(=O)c(C(=O)O)cn3-c2ccc(F)cn2)CC(C)N1 (stereo not drawn),> 100 µM (inactive),> 100 µM (inactive),> 100 µM (inactive),> 100 µM (inactive),,> 100 µM (inactive),> 100 µM (inactive),> 100 µM (inactive),> 100 µM (inactive),> 100 µM (inactive),> 100 µM (inactive),> 100 µM (inactive),> 100 µM (inactive),> 100 µM (inactive),> 100 µM (inactive),> 100 µM (inactive),> 100 µM (inactive),> 100 µM (inactive),> 100 µM (inactive),
